The record followed here is patent US20250163053A1, “CRYSTALLINE FORM OF NITROGEN-CONTAINING HETEROCYCLIC COMPOUND, PREPARATION METHOD THEREFOR AND USE THEREOF” (SHANGHAI PHARMACEUTICALS HOLDING CO., LTD., priority 2022, published 2025).

Where two headings read alike, the source gives them in different places.

Data set [1] in a line: Absorption in rats after intragastric administration of different crystal forms (plasma PK, LC/MS/MS). In kind it is in vivo. As to conditions: 8 mg/kg. On the procedure:
SD rats were intragastrically administered samples of different crystal forms. Blood samples (0.4 mL) were respectively collected from the venous plexus of the rat's fundus oculi at various time points: before administration and at 5, 15, 30, 60, 90, 120, 240, 360, 480, 600, and 1440 minutes after administration. The blood samples were centrifuged at 8000 rpm for 5 minutes to separate the upper plasma. 50 μL of plasma sample was added with 300 μL of acetonitrile containing an internal standard (Propranolol, 25 ng/mL) to precipitate proteins. The mixture was vortexed for 10 minutes, and centrifuged at 6000 g and 4° C. for 20 minutes. The supernatant (20 μL) was taken and diluted with 80 μL of ultrapure water. After centrifugation, 80 μL of the supernatant was taken for injection into a 96-well plate. The plasma drug concentration was determined using LC/MS/MS, and the corresponding pharmacokinetic parameters were calculated, as shown in Table 17.

Another data set deals with T1, ErbB2 kinase (HER2) (Homo sapiens, UniProt P04626).
T1 construct: purchased Sigma E2645-500UN
Kind of data set: EGFR/ErbB2 enzymatic assay (HTRF kinEASE-TK), ErbB2. In kind it is biochemical. As to conditions: ErbB2 kinase 0.06 ng/μL, ATP 4 μM. On the procedure:
(§1) First, a 1× reaction buffer required for the kinase was prepared by diluting the 5× Enzymatic Buffer (HEPES 20 mM, pH 7.0, NaN3 0.1%, BSA 0.05%, sodium orthovanadate 0.5 mM) from the HTRF kinEASE-TK kit with deionized water to one-fold. At the same time, 50 nM Supplement Enzymatic Buffer (SEB reagent), 1 mM MnCl2, 5 mM MgCl2, and 1 mM DTT were added. Next, a 5× compound solution was prepared. […] This initial concentration was then used as the first concentration, and further diluted with DMSO in a 3-fold serial dilution to dilute a total of 10 concentrations. Subsequently, 1 μL of the serially diluted solution was added to 19 μL of 1× reaction buffer to prepare the 5× compound solution for later use. Then, 2 μL of the 5× compound solution was transferred from the 96-well plate into a 384-well plate. In the no-compound control wells, 2 μL of a mixture of 1 μL DMSO and 19 μL 1× reaction buffer was added. In the blank control wells, 2 μL of 250 mM EDTA was added. In the third step, the enzyme reaction stage, the kinase, substrate (TK Substrate-biotin), and ATP were prepared into a 2.5× enzyme/substrate mixture and a 2.5× ATP solution using the 1× reaction buffer. […] Data were measured on EnVision™, with a 337 nm laser used as the excitation light. The RFU was measured at 665 nm and 620 nm, and RFU 665 nM/RFU 620 nM×10000 was used as the final data for analysis.
(In TR-FRET formats the signal depends on donor and acceptor labels being close together.)

A further data set deals with T2, EGFR kinase (Homo sapiens, UniProt P00533).
T2 construct: purchased Carna 08-016
Kind of data set: EGFR/ErbB2 enzymatic assay (HTRF kinEASE-TK), EGFR. The class given is biochemical. The following applies: EGFR kinase 0.06 units/μL, ATP 1.65 μM. On the procedure:
as §1

Data set [2] is described as follows: Physicochemical stability of crystal form C (UPLC purity, XRPD). On the procedure:
The solid samples after being placed under different conditions were respectively tested for purity by UPLC to evaluate chemical stability, and the crystal form was tested by XRPD to evaluate physical stability. […] Additionally, no significant degradation was observed after one day at 60° C. or one week at 25° C./60% RH and 40° C./75% RH (details of purity changes are provided in Table 16).

T2 sequence (P00533 25-1210): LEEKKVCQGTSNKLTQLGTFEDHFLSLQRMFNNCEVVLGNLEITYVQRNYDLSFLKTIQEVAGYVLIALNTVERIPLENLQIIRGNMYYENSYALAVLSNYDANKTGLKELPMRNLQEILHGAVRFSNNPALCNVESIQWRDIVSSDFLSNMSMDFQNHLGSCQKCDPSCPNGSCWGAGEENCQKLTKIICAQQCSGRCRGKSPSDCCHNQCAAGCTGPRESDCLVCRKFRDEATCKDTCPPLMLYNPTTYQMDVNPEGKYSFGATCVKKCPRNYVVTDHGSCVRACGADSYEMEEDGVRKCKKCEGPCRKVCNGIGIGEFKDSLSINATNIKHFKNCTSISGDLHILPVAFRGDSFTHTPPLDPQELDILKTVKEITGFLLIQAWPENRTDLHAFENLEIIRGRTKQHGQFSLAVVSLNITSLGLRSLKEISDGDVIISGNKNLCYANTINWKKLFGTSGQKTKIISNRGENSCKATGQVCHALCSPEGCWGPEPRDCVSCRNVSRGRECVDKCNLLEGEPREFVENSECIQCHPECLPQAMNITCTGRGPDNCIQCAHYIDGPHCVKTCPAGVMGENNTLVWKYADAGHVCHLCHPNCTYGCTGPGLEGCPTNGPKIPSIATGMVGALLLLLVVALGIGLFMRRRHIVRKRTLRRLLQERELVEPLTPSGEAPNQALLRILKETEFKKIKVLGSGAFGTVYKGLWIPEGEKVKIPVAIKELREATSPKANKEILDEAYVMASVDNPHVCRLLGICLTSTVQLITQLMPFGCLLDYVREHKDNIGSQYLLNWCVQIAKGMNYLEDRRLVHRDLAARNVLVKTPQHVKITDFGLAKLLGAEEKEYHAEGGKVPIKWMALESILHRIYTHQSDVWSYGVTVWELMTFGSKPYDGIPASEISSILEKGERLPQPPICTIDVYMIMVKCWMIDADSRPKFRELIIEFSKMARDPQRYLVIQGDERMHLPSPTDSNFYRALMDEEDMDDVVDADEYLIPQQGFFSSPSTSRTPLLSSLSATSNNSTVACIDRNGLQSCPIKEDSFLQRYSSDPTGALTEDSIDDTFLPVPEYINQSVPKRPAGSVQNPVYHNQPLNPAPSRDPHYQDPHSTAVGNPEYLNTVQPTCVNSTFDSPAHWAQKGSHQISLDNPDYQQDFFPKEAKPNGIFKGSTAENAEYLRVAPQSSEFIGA
T1 sequence (P04626 23-1255): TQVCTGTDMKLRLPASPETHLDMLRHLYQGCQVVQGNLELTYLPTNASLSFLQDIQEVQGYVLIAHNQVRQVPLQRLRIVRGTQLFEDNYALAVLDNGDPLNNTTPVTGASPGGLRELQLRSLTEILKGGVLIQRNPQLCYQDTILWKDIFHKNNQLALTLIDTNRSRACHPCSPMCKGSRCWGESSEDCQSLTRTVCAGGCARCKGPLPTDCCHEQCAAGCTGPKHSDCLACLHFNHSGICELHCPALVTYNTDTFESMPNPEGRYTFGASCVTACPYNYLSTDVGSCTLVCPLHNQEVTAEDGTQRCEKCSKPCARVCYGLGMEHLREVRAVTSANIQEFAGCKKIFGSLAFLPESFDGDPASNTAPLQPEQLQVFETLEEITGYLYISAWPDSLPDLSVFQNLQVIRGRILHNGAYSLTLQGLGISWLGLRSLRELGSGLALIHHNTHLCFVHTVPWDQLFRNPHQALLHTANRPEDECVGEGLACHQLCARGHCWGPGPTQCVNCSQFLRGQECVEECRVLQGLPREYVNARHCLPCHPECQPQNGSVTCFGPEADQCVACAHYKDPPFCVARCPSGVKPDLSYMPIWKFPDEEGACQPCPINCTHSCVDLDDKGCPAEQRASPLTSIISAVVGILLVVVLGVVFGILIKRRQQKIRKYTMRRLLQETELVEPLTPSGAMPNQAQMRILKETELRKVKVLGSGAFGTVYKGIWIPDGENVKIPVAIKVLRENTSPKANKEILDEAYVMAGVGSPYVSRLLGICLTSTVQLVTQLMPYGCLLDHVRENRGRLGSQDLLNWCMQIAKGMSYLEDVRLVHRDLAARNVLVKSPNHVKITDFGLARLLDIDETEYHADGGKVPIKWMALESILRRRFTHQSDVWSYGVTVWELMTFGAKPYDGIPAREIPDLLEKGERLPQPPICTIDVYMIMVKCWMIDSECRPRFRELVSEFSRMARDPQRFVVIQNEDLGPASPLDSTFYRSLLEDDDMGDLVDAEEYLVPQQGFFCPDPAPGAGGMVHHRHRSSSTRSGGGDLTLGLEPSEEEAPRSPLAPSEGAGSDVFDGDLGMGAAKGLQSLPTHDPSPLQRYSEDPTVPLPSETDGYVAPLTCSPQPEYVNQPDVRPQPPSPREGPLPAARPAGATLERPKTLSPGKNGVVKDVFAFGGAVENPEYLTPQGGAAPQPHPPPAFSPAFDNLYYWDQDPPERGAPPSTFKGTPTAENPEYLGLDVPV

Usually Cmax stands for the maximum level reached in the sampled fluid or tissue. The Tmax is the time at which the peak concentration occurs. As a reminder, the half-life is the time needed for the level to fall by half in the phase considered. The low end stands for rapid decline, the high end for slow decline. The MRT is a mean duration of stay, worked out from the concentration-time curve. Consider `CCOc1cc2ncnc(Nc3ccc(Oc4ccn5ncnc5c4)c(C)c3)c2cc1NC(=O)/C(F)=C/[C@H]1CCCN1C` [Amorphous form, (R,Z)-N-(4-((4-([1,2,4]triazolo[1,5-α]pyridin-7-yloxy)-3-methylphenyl)amino)-7-ethoxyquinazolin-6-yl)-2-fluoro-3-(1-methylpyrrolidin-2-yl)acrylamide], for which, in data set [1] (SD rats), the AUCextra is listed as 0.758 (h)*(ng/mL), the AUClast was 6536 (h)*(ng/mL), the AUCtot is 6586 (h)*(ng/mL) and the Cmax was found to be 800 ng/mL. The time to peak (Tmax) in data set [1] (SD rats) amounted to 6.00 h. The compound also showed a half-life in data set [1] (SD, rat, plasma, po) of 3.03 h. The mean residence time (MRT) in data set [1] (SD, rat, plasma, po, read-out: MRT) was 6.52 h.
On to `CCOc1cc2ncnc(Nc3ccc(Oc4ccn5ncnc5c4)c(C)c3)c2cc1NC(=O)/C(F)=C/[C@H]1CCCN1C` [Crystal form A, (R,Z)-N-(4-((4-([1,2,4]triazolo[1,5-α]pyridin-7-yloxy)-3-methylphenyl)amino)-7-ethoxyquinazolin-6-yl)-2-fluoro-3-(1-methylpyrrolidin-2-yl)acrylamide], for which, in data set [1] (SD rats), the AUCextra is 0.288 (h)*(ng/mL), the AUClast is given as 4789 (h)*(ng/mL), the AUCtot was 4802 (h)*(ng/mL) and the Cmax amounted to 753 ng/mL. In data set [1] (SD rats), the mean residence time MRT worked out at 4.74 h, the time of peak concentration (Tmax) is listed as 2.00 h and the t1/2 was determined as 2.74 h.
Take `CCOc1cc2ncnc(Nc3ccc(Oc4ccn5ncnc5c4)c(C)c3)c2cc1NC(=O)/C(F)=C/[C@H]1CCCN1C` [Crystal form B, (R,Z)-N-(4-((4-([1,2,4]triazolo[1,5-α]pyridin-7-yloxy)-3-methylphenyl)amino)-7-ethoxyquinazolin-6-yl)-2-fluoro-3-(1-methylpyrrolidin-2-yl)acrylamide]: in data set [1] (SD rats), the AUCextra is reported as 1.01 (h)*(ng/mL), the AUClast is recorded as 5904 (h)*(ng/mL), the AUCtot is on record as 5965 (h)*(ng/mL) and the Cmax amounted to 599 ng/mL. In data set [1] (SD rats), the MRT was determined as 6.07 h, the Tmax is reported as 6.00 h and the t1/2 is 3.34 h.
Usually IC50 stands for the midpoint of a concentration-inhibition curve. As for `CCOc1cc2ncnc(Nc3ccc(Oc4ccn5ncnc5c4)c(C)c3)c2cc1NC(=O)/C(F)=C/[C@H]1CCCN1C` [Crystal form C, (R,Z)-N-(4-((4-([1,2,4]triazolo[1,5-α]pyridin-7-yloxy)-3-methylphenyl)amino)-7-ethoxyquinazolin-6-yl)-2-fluoro-3-(1-methylpyrrolidin-2-yl)acrylamide], the half-maximal inhibitory concentration (IC50) at ErbB2 kinase (HER2) is 0.26 nM. In addition, the IC50 against EGFR kinase is 1.45 nM. Also, in data set [1] (SD rats), the AUCextra was 0.451 (h)*(ng/mL), the AUClast was 6863 (h)*(ng/mL), the AUCtot is reported as 6894 (h)*(ng/mL) and the Cmax came out at 1165 ng/mL. Besides, in data set [1] (SD rats), the MRT stood at 4.63 h, the time to peak (Tmax) amounted to 2.00 h and the t1/2 came to 3.04 h. The Stability sample purity in data set [2] (25° C./60% RH, 1 week, open) is reported as 99.29 area %. In addition, in data set [2] (25° C./60% RH, one week), the “Peak at RRT 0.63” value amounted to 0.18%, the “Peak at RRT 0.67” value is reported as 0.18%, the “Peak at RRT 0.95” value came to 0.08% and the “Peak at RRT 1.00” value is recorded as 99.29%. Moreover, in data set [2] (25° C./60% RH, one week), the “Peak at RRT 1.03” value stood at 0.12% and the “Peak at RRT 1.08” value is reported as 0.15%. Moreover, the Stability sample purity in data set [2] (40° C./75% RH, 1 week, open) came to 99.29 area %. For the same compound, in data set [2] (40° C./75% RH, one week), the “Peak at RRT 0.63” value is 0.18%, the “Peak at RRT 0.67” value turned out to be 0.18%, the “Peak at RRT 0.95” value was determined as 0.08% and the “Peak at RRT 1.00” value was found to be 99.29%. In addition, in data set [2] (40° C./75% RH, one week), the “Peak at RRT 1.03” value was found to be 0.12% and the “Peak at RRT 1.08” value was 0.15%. In addition, the Stability sample purity in data set [2] (60° C., 24 hours, sealed) is given as 99.29 area %. In addition, in data set [2] (60° C., one day), the “Peak at RRT 0.63” value is listed as 0.18%, the “Peak at RRT 0.67” value is given as 0.18%, the “Peak at RRT 0.95” value is on record as 0.08% and the “Peak at RRT 1.00” value turned out to be 99.29%. For the same compound, in data set [2] (60° C., one day), the “Peak at RRT 1.03” value is reported as 0.12% and the “Peak at RRT 1.08” value stood at 0.15%. Further, in data set [2] (Initial sample), the “Peak at RRT 0.63” value worked out at 0.18%, the “Peak at RRT 0.67” value came to 0.18%, the “Peak at RRT 0.95” value amounted to 0.08% and the “Peak at RRT 1.00” value is 99.31%. For the same compound, in data set [2] (Initial sample), the “Peak at RRT 1.03” value was 0.10% and the “Peak at RRT 1.08” value is on record as 0.15%. Moreover, the Crystal form change result in data set [2] (XRPD, 60° C. 24 hours, 25° C./60% RH 1 week, 40° C./75% RH 1 week) is reported as “No”. Besides, the Initial purity in data set [2] (before storage, UPLC) was 99.31 area %.
In the case of `CCOc1cc2ncnc(Nc3ccc(Oc4ccn5ncnc5c4)c(C)c3)c2cc1NC(=O)/C(F)=C/[C@H]1CCCN1C` [Crystal form M, (R,Z)-N-(4-((4-([1,2,4]triazolo[1,5-α]pyridin-7-yloxy)-3-methylphenyl)amino)-7-ethoxyquinazolin-6-yl)-2-fluoro-3-(1-methylpyrrolidin-2-yl)acrylamide], in data set [1] (SD rats), the AUCextra is recorded as 0.169 (h)*(ng/mL), the AUClast was 2870 (h)*(ng/mL), the AUCtot was 2875 (h)*(ng/mL) and the Cmax is recorded as 489 ng/mL. In addition, in data set [1] (SD rats), the MRT was found to be 4.59 h, the Tmax came out at 2.00 h and the t1/2 was 2.55 h.
